Assay results as given in PubChem BioAssay (NCI).
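Tested at 5 concentrations; 48 h exposure; 96-well plates; endpoints linearly interpolated, else capped at highest concentration. TGI: total growth inhibition.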

How the values were obtained:
Test in all cases: NCI anticancer screen, dose series, 48 h
[1] = tested on: 786-0 renal
[2] = tested on: A549 NSCLC
[3] = tested on: ACHN renal
[4] = tested on: CAKI-1 renal
[5] = tested on: CCRF-CEM leukemia
[6] = tested on: COLO 205 colon
[7] = tested on: DLD-1 colon
[8] = tested on: DMS 114 small cell lung
[9] = tested on: DMS 273 small cell lung
[10] = tested on: EKVX NSCLC
[11] = tested on: HCC-2998 colon
[12] = tested on: HCT-15 colon
[13] = tested on: HL-60(TB) leukemia
[14] = tested on: HOP-62 NSCLC
[15] = tested on: IGROV1 ovarian
[16] = tested on: K-562 leukemia
[17] = tested on: KM20L2 colon
[18] = tested on: LOX IMVI melanoma
[19] = tested on: LXFL 529 NSCLC
[20] = tested on: M14 melanoma
[21] = tested on: M19-MEL melanoma
[22] = tested on: MALME-3M melanoma
[23] = tested on: MOLT-4 leukemia
[24] = tested on: OVCAR-4 ovarian
[25] = tested on: OVCAR-5 ovarian
[26] = tested on: OVCAR-8 ovarian
[27] = tested on: RPMI-8226 leukemia
[28] = tested on: SK-MEL-2 melanoma
[29] = tested on: SK-MEL-5 melanoma
[30] = tested on: SK-OV-3 ovarian
[31] = tested on: SN12C renal
[32] = tested on: SR leukemia
[33] = tested on: SW-620 colon
[34] = tested on: TK-10 renal
[35] = tested on: U251 CNS
[36] = tested on: UACC-62 melanoma
[37] = tested on: XF 498 CNS
[38] = tested on: A498 renal
[39] = tested on: HCT-116 colon
[40] = tested on: HOP-18 NSCLC
[41] = tested on: HOP-92 NSCLC
[42] = tested on: HT29 colon
[43] = tested on: KM12 colon
[44] = tested on: NCI-H226 lung
[45] = tested on: NCI-H23 lung
[46] = tested on: NCI-H460 lung
[47] = tested on: RXF 393 renal
[48] = tested on: SF-268 CNS
[49] = tested on: SF-295 CNS
[50] = tested on: SF-539 CNS
[51] = tested on: SK-MEL-28 melanoma
[52] = tested on: SNB-19 CNS
[53] = tested on: SNB-75 CNS
[54] = tested on: SNB-78 CNS
[55] = tested on: UACC-257 melanoma
[56] = tested on: UO-31 renal
[57] = tested on: NCI-H522 lung
[58] = tested on: OVCAR-3 ovarian
[59] = tested on: RXF-631 renal

For `CC#Cc1c(O)c2c(c(O)c1C#CC)C(=O)c1ccccc1C2=O`, the TGI [1] was > 100 µM, the TGI [2] was > 100 µM and the TGI [3] was > 100 µM. The TGI [4] was > 100 µM, the TGI [5] was > 100 µM and the TGI [6] was > 100 µM. The TGI [7] was > 100 µM, the TGI [8] was > 100 µM and the TGI [9] was > 100 µM. The TGI [10] was > 100 µM, the TGI [11] was > 100 µM and the TGI [12] was > 100 µM. The TGI [13] was > 100 µM, the TGI [14] was > 100 µM and the TGI [15] was > 100 µM. The TGI [16] was > 100 µM, the TGI [17] was > 100 µM and the TGI [18] was > 100 µM. For the same molecule, the TGI [19] was 42.7 µM, the TGI [20] was > 100 µM and the TGI [21] was > 100 µM. The TGI [22] was > 100 µM, the TGI [23] was > 100 µM and the TGI [24] was > 100 µM. The TGI [25] was > 100 µM, the TGI [26] was > 100 µM and the TGI [27] was > 100 µM. For the same molecule, the TGI [28] was > 100 µM, the TGI [29] was > 100 µM and the TGI [30] was > 100 µM. The TGI [31] was > 100 µM, the TGI [32] was > 100 µM and the TGI [33] was > 100 µM. For the same molecule, the TGI [34] was > 100 µM, the TGI [35] was > 100 µM and the TGI [36] was > 100 µM. The TGI [37] was > 100 µM.
In the case of `CCCn1cc2c(=O)[nH]c(SC)nc2n1`, the TGI [38] is reported as > 100 µM, the TGI [2] is reported as > 100 µM and the TGI [3] is reported as > 100 µM. The TGI [4] was > 100 µM, the TGI [5] was > 100 µM and the TGI [6] was > 100 µM. For the same molecule, the TGI [7] was > 100 µM, the TGI [8] was > 100 µM and the TGI [9] was > 100 µM. The TGI [10] was > 100 µM, the TGI [11] was > 100 µM and the TGI [39] was > 100 µM. The TGI [12] was > 100 µM, the TGI [13] was > 100 µM and the TGI [40] was > 100 µM. The TGI [41] was > 100 µM, the TGI [42] was > 100 µM and the TGI [15] was > 100 µM. For the same molecule, the TGI [43] was > 100 µM, the TGI [18] was > 100 µM and the TGI [19] was > 100 µM. The TGI [20] was > 100 µM, the TGI [22] was > 100 µM and the TGI [23] was > 100 µM. For the same molecule, the TGI [44] was 89.1 µM, the TGI [45] was > 100 µM and the TGI [46] was > 100 µM. For the same molecule, the TGI [24] was > 100 µM, the TGI [25] was > 100 µM and the TGI [26] was > 100 µM. The TGI [27] was > 100 µM, the TGI [47] was > 100 µM and the TGI [48] was > 100 µM. For the same molecule, the TGI [49] was > 100 µM, the TGI [50] was > 100 µM and the TGI [28] was > 100 µM. The TGI [51] was > 100 µM, the TGI [29] was > 100 µM and the TGI [31] was > 100 µM. For the same molecule, the TGI [52] was > 100 µM, the TGI [53] was > 100 µM and the TGI [54] was > 100 µM. The TGI [32] was > 100 µM, the TGI [33] was > 100 µM and the TGI [34] was > 100 µM. For the same molecule, the TGI [35] was > 100 µM, the TGI [55] was > 100 µM and the TGI [56] was > 100 µM. For the same molecule, the TGI [37] was 98.1 µM.
`CSC(=O)C[C@@]12O[C@@H]([C@@H](C)C3CCC4[C@@H]5C(O)CC6=CC(=O)C=C[C@]6(C)C5CC[C@@]43C)C[C@](C)(O1)C(C)(C)O2` (some centres not stated) gave a TGI [1] of 30.2 µM, a TGI [38] of 31.5 µM and a TGI [2] of 32 µM. It also gave a TGI [4] of 34.9 µM, a TGI [5] of 19.1 µM and a TGI [8] of 39.9 µM. For the same molecule, the TGI [9] was 35.9 µM, the TGI [11] was 41.6 µM and the TGI [39] was 26.4 µM. For the same molecule, the TGI [12] was 32 µM, the TGI [13] was 38.2 µM and the TGI [14] was 34.8 µM. It also gave a TGI [41] of 23 µM, a TGI [42] of 27.6 µM and a TGI [15] of 46.2 µM. For the same molecule, the TGI [16] was 19.9 µM, the TGI [43] was 32.9 µM and the TGI [18] was 25.1 µM. The TGI [19] was 26.4 µM, the TGI [20] was 33.3 µM and the TGI [21] was 8.4 µM. The TGI [22] was 43.5 µM, the TGI [44] was 38.7 µM and the TGI [46] was 35.8 µM. For the same molecule, the TGI [57] was 30 µM, the TGI [58] was 30.2 µM and the TGI [24] was 28.3 µM. For the same molecule, the TGI [25] was 31.8 µM, the TGI [26] was 37.9 µM and the TGI [27] was 34.3 µM. It also gave a TGI [47] of 24.4 µM, a TGI [59] of 54.9 µM and a TGI [48] of 34.6 µM. It also gave a TGI [49] of 28.6 µM, a TGI [50] of 30.7 µM and a TGI [28] of 45 µM. For the same molecule, the TGI [51] was 32.1 µM, the TGI [30] was 42.6 µM and the TGI [31] was 31.5 µM. It also gave a TGI [52] of 33.8 µM, a TGI [54] of 37.6 µM and a TGI [32] of 34.8 µM. For the same molecule, the TGI [33] was 33.2 µM, the TGI [34] was 34.8 µM and the TGI [35] was 25.2 µM. For the same molecule, the TGI [55] was 26.9 µM, the TGI [36] was 27 µM and the TGI [56] was 24.8 µM. The TGI [37] was 28.8 µM.
With `Cc1ccc(/C=C/C(=O)c2ccc(Cl)c(Cl)c2)cc1` the TGI [1] was > 100 µM, the TGI [38] was > 100 µM and the TGI [2] was > 100 µM. The TGI [3] was > 100 µM, the TGI [4] was > 100 µM and the TGI [5] was > 100 µM. The TGI [6] was > 100 µM, the TGI [7] was > 100 µM and the TGI [9] was > 100 µM. The TGI [10] was > 100 µM, the TGI [11] was > 100 µM and the TGI [39] was > 100 µM. The TGI [13] was > 100 µM, the TGI [40] was > 100 µM and the TGI [14] was > 100 µM. The TGI [42] was > 100 µM, the TGI [15] was > 100 µM and the TGI [16] was > 100 µM. For the same molecule, the TGI [43] was > 100 µM, the TGI [17] was > 100 µM and the TGI [18] was > 100 µM. The TGI [19] was > 100 µM, the TGI [20] was > 100 µM and the TGI [22] was > 100 µM. For the same molecule, the TGI [23] was > 100 µM, the TGI [44] was > 100 µM and the TGI [45] was > 100 µM. For the same molecule, the TGI [46] was > 100 µM, the TGI [57] was > 100 µM and the TGI [58] was > 100 µM. For the same molecule, the TGI [24] was > 100 µM, the TGI [25] was > 100 µM and the TGI [26] was > 100 µM. For the same molecule, the TGI [47] was > 100 µM, the TGI [59] was > 100 µM and the TGI [48] was > 100 µM. For the same molecule, the TGI [49] was > 100 µM, the TGI [28] was > 100 µM and the TGI [51] was > 100 µM. The TGI [29] was > 100 µM, the TGI [31] was > 100 µM and the TGI [52] was > 100 µM. The TGI [53] was > 100 µM, the TGI [54] was > 100 µM and the TGI [32] was > 100 µM. For the same molecule, the TGI [33] was > 100 µM, the TGI [34] was > 100 µM and the TGI [35] was > 100 µM. The TGI [55] was > 100 µM, the TGI [36] was > 100 µM and the TGI [56] was > 100 µM. The TGI [37] was > 100 µM.
